Consider 6 molecules from patent US5612174A, “Photographic yellow dye-forming couplers and silver halide color photographic materials containing the same” (Fuji Photo Film Co., Ltd., priority 1994, dated 1997).

Each structure is given as a SMILES string.

The nature of data set [1]: Solubility of yellow couplers in 100 ml of ethyl acetate at 25° C. It is filed as physicochemical. Conditions: for Solubility: 25° C.; for solubility in ethyl acetate relative to RY-1 and RY-2: in words. How it is done: Test for Solubility of Yellow Couplers in Organic Solvents:
A test was conducted in order to determine what grams of the yellow coupler shown in Table A below are dissolved in 100 ml of ethyl acetate at 25° C. The yellow coupler was gradually added to 100 ml of ethyl acetate by 0.1 g at a time and stirred for 5 minutes, whereupon the amount not dissolved was referred to as a saturation point. The results are shown in Table A. As comparative couplers, used were the following RY-1 and RY-2. [drawing 15]
Solubility of Couplers in 100 ml of
Ethyl Acetate (at 25° C.)

Data set [2] in a line: Solubility of yellow couplers in high boiling point organic solvents Solv-2, Solv-3 and Solv-9. As to conditions: in words. It is filed as physicochemical. How it is done:
The same test as above was conducted to determine the solubility of the yellow couplers in known high boiling point organic solvents Solv-2, Solv-3 and Solv-9 mentioned below.

As for `CCCCCCCCC=CCCCCCCCC(=O)Nc1ccc(OC)c(NC(=O)C(C(=O)C(C)(C)C)N2C(=O)NC(C)(C)C2=O)c1` (centres unmarked) [Y-13], in data set [1], the Solubility is reported as 20.8 g/100 ml; the “solubility in ethyl acetate relative to RY-1 and RY-2” value was “much larger solubility in ethyl acetate than the known yellow couplers of RY-1 and RY-2”. The “solubility in known high boiling point organic solvents relative to RY-1 and RY-2” value in data set [2] was “much larger solubility in such solvents than the known yellow couplers of RY-1 and RY-2”.
Consider `CCCCCCCCC=CCCCCCCCC(=O)Nc1ccc(Cl)c(NC(=O)C(C(=O)C(C)(C)C)N2C(=O)NC(C)(C)C2=O)c1` (centres unmarked) [Y-1], for which, in data set [1], the Solubility is reported as 21.0 g/100 ml; the “solubility in ethyl acetate relative to RY-1 and RY-2” value is “much larger solubility in ethyl acetate than the known yellow couplers of RY-1 and RY-2”. In addition, in data set [2], the “solubility in known high boiling point organic solvents relative to RY-1 and RY-2” value is “much larger solubility in such solvents than the known yellow couplers of RY-1 and RY-2”.
Take `CCCCCC=CCC=CCCCCCCCC(=O)Nc1ccc(Cl)c(NC(=O)C(C(=O)C(C)(C)C)N2C(=O)NC(C)(C)C2=O)c1` (centres unmarked) [Y-2]: in data set [1], the Solubility came to 21.2 g/100 ml; the “solubility in ethyl acetate relative to RY-1 and RY-2” value is “much larger solubility in ethyl acetate than the known yellow couplers of RY-1 and RY-2”. Further, in data set [2], the “solubility in known high boiling point organic solvents relative to RY-1 and RY-2” value is “much larger solubility in such solvents than the known yellow couplers of RY-1 and RY-2”.
As to `CCC(Oc1ccc(C(C)(C)CC)cc1C(C)(C)CC)C(=O)Nc1ccc(Cl)c(NC(=O)C(C(=O)C(C)(C)C)N2C(=O)NC(C)(C)C2=O)c1` (centres unmarked) [RY-1, reference compound], the Solubility in data set [1] came to 15.8 g/100 ml.
On the same count and under the same terms, the result for `CCCCCCCCCCCCCCCCCC(=O)Nc1ccc(Cl)c(NC(=O)C(C(=O)C(C)(C)C)N2C(=O)NC(C)(C)C2=O)c1` (centres unmarked) [RY-2, reference compound] reads 8.5 g/100 ml.
On to `CCC=CCC=CCC=CCCCCCCCC(=O)Nc1ccc(Cl)c(NC(=O)C(C(=O)C(C)(C)C)N2C(=O)NC(C)(C)C2=O)c1` (centres unmarked) [Y-3], for which, in data set [1], the Solubility turned out to be 21.4 g/100 ml; the “solubility in ethyl acetate relative to RY-1 and RY-2” value was “much larger solubility in ethyl acetate than the known yellow couplers of RY-1 and RY-2”. In addition, the “solubility in known high boiling point organic solvents relative to RY-1 and RY-2” value in data set [2] is “much larger solubility in such solvents than the known yellow couplers of RY-1 and RY-2”.
